Consider three compounds from patent US10519143B2, “Substituted-indole-compounds as estrogen receptor down-regulators” (LUOXIN PHARMACEUTICAL (SHANGHAI) CO., LTD, priority 2016, dated 2019).

A short description of series [1]: drug distribution in tissues (plasma, tumor, brain). Type of series: in vivo, mice. The note with it: for AUC0-last (nmol · h/kg) brain / AUC0-last (nmol · h/kg) plasma / AUC0-last (nmol · h/kg) tumor: dose 67.3 μmol/kg, 20th day after grouping. Here is the method:
On the 20th day after grouping, the sample was collected from plasma, tumor, breast and brain of the mice at four time points (2-3 mice each time point) which was respectively 0.5 hour, 1.5 hours, 6 hours and 24 hours after administration. The blood (0.5 mL) was collected using a 1.5 mL EDTA-K2 anticoagulation tube, immediately centrifuged at 4000 rpm, 4° C. for 10 minutes to prepare plasma, the plasma sample was stored at −80° C. for determination of drug concentration. The tumor was collected using a 2 mL cryotube, and the brain was collected using a 5 mL cryotube, the samples were immediately put into liquid nitrogen for quike freeze. All samples were stored at −80° C. for determination of drug concentration after sampling. The result was converted based on corresponding AUC to compare the drug distribution.

The test system of series [2] is MCF-7 breast cancer cell xenograft. The series is described as follows: antitumor activity on MCF-7 breast cancer cell xenograft model. Type of series: in vivo, BALB/c nude mice. The note with it: for T/C (%) / TGI (%) / tumor volumn (mm^3) 17th day after grouping: oral, once a day, ARN-810 10/30 mg/kg, I-1 30 mg/kg; for T/C (%) / TGI (%): 17th day after grouping; for tumor volumn (mm^3) 17th day after grouping: Mean ± SEM. The procedure:
Mice were inoculated subcutaneously with 0.36 mg estrogen sustained release tablet (60 days release) on the left shoulder three days before inoculation. When cells were in the logarithmic growth phase, cells were harvested, counted and adjusted to 10×10^7 cells/mL, then an equal volume of Matrigel was added, mixing for inoculation. 0.2 mL MCF-7 tumor cell suspension (10×10^6) was inoculated subcutaneously into the right shoulder of each mouse. On the 7th day after tumor cell inoculation, mice were grouped and administrated once a day, with an average tumor volume of 169 mm^3 and a body weight of 23.33 g. Tumor volume and body weight were measured twice a week after grouping, and the tumor growth rate (T/C) and tumor growth inhibition rate (TGI) were calculated based on the last measuring data on the 17th day after grouping.

The nature of series [3]: in vivo PK properties (cassette PK). The note with it: plasma; for AUC(0-t): read-out: AUC0-last (nm/hr); for Vd: read-out: Vdss.
The target in a further series is CYP 2D6 (Homo sapiens, UniProt P10635). Briefly: inhibition of CYP enzymes 2D6. Type of series: in vitro ADME.
For another series, the target named is CYP 2C19 (Homo sapiens, UniProt P33261). The series is described as follows: inhibition of CYP enzymes 2C19. In kind it is in vitro ADME.
Series [4] can be described thus: plasma protein binding rate (CD-1 mouse). Type of series: in vitro ADME.
Series [5] can be described thus: plasma protein binding rate (Human). Type of series: in vitro ADME.
For the next series, the target named is CYP 3A4 (Homo sapiens, UniProt P08684). The series is described as follows: inhibition of CYP enzymes 3A4. In kind it is in vitro ADME.
Another series deals with CYP 2C9 (Homo sapiens, UniProt P11712). The series is described as follows: inhibition of CYP enzymes 2C9. In kind it is in vitro ADME.
A further series concerns MCF-7 cells. The series is described as follows: MCF-7 cell proliferation inhibition assay. In kind it is cell-based. The note with it: Homo sapiens, MCF7, 144 h; MCF-7 cells, 6 days incubation, CellTiter-Glo; read-out: anti-proliferation in MCF-7 cells. The procedure: Experimental Reagent: RPMI 1640 medium, fetal bovine serum, Promega CellTiter-Glo reagent. The cell line MCF-7 was purchased from The European Collection of Authenticated Cell Cultures (ECACC). Envision Multilabel Reader (PerkinElmer). Experimental Method: […] The cell plate was placed in a carbon dioxide incubator overnight. […] The cell plate was incubated in a carbon dioxide incubator for 6 days. Promega CellTiter-Glo reagent was added to the cell plate at 25 μL per well, cells were incubated for 10 minutes at room temperature to stabilize the luminescence signal, which was measured using PerkinElmer Envision Multilabel Reader. Data Analysis: […] (Model 205 in XLFIT5, iDBS)
(In general: ATP-based viability assays read luminescence as a measure of living cells.)

In the next series the target is T1, CYP 1A2 (Homo sapiens, UniProt P05177).
T1 sequence (P05177 1-516): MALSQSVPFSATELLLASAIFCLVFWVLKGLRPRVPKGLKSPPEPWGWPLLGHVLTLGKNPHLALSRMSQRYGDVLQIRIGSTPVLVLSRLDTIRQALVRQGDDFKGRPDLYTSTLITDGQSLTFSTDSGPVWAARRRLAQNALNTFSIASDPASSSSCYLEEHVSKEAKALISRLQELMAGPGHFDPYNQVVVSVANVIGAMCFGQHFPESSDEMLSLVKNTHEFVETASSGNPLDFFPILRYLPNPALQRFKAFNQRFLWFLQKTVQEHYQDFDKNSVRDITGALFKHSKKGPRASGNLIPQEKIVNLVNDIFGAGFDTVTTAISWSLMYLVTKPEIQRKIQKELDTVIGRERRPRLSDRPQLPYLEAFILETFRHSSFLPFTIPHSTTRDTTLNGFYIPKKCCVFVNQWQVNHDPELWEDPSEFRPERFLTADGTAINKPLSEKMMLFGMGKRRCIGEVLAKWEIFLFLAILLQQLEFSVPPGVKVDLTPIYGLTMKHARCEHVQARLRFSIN
The series is described as follows: inhibition of CYP enzymes 1A2. In kind it is in vitro ADME.

The conditions of series [6]: prior art statement; cited from earlier work.
The test system of a further series is breast cancer. The note with it: intramuscular injection, prior art statement; cited from earlier work.

As usually defined, the clearance is the volume of plasma or blood freed of the substance per unit of time. A low value points to a low capacity for elimination. The half-life is the time needed for the level to fall by half in the phase considered. The term Cmax denotes the maximum level reached in the sampled fluid or tissue. The term Tmax denotes the time from dosing to the highest level. By bioavailability is commonly meant dose-corrected exposure relative to a reference, in per cent. High values mean much systemic uptake, low ones little systemic uptake. The fraction unbound is the share of the substance not bound to proteins or other matrix. Read a low fraction unbound as extensive binding.

Read-outs that look alike come from different tables or passages of the source.

CYP 2C19, sequence (P33261 whole entry): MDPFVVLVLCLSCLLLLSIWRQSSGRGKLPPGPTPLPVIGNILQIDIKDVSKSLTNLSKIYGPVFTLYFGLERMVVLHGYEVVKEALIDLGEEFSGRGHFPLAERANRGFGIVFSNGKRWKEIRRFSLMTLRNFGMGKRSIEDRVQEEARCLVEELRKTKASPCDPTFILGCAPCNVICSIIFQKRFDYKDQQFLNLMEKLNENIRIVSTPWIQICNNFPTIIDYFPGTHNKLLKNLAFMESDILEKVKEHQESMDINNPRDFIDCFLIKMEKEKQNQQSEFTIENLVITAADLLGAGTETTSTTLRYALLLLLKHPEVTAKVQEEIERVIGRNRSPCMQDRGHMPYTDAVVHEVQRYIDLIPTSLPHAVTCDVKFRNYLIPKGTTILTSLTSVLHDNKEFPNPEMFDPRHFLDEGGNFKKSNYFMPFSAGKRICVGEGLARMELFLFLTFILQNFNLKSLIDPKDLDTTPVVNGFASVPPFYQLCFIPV
CYP 3A4, sequence (P08684 whole entry): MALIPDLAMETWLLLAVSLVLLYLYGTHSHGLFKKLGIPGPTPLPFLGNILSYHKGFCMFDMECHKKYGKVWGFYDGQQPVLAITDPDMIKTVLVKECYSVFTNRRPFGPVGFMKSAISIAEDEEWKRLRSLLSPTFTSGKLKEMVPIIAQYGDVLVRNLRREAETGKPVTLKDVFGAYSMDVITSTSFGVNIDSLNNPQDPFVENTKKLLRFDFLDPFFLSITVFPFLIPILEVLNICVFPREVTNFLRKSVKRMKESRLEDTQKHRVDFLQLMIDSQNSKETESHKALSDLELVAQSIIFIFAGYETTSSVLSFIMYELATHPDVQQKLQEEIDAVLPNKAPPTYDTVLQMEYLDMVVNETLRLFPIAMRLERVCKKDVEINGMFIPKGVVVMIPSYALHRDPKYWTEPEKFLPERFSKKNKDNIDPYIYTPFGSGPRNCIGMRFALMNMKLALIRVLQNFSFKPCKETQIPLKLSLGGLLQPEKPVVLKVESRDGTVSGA
CYP 2D6, sequence (P10635 whole entry): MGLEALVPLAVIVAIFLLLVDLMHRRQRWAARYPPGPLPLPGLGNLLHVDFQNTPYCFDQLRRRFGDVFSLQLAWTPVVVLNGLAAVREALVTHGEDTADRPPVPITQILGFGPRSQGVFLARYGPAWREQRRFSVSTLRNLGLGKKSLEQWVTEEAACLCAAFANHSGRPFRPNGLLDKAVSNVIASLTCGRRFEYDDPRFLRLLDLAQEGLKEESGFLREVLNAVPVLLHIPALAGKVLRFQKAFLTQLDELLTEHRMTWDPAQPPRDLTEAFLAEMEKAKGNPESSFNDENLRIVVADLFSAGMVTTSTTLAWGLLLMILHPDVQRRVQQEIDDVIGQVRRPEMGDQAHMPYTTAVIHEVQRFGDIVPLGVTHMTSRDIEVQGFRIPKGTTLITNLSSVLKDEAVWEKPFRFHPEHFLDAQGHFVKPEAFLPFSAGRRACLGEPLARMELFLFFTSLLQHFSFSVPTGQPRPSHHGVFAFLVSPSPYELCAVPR
CYP 2C9, sequence (P11712 whole entry): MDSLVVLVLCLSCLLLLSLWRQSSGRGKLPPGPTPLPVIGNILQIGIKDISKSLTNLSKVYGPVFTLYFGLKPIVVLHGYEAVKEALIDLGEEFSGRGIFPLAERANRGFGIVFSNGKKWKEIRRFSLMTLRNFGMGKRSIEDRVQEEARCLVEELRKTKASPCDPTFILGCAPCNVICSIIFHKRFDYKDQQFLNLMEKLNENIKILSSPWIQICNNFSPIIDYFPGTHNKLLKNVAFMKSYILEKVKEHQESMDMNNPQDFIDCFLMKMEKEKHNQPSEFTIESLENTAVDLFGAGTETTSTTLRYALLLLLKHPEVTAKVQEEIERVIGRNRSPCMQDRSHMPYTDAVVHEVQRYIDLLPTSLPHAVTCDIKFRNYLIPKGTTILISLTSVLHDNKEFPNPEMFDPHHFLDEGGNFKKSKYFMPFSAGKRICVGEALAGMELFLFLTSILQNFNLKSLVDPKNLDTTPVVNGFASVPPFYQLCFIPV

Take `CC/C(=C(/c1ccc(/C=C/C(=O)O)cc1)c1ccc2[nH]ncc2c1)c1ccc(F)cc1Cl` [ARN-810, reference compound]: in [1], the “AUC0-last (nmol · h/kg) brain” value worked out at 3490 nmol·h/kg, the “AUC0-last (nmol · h/kg) plasma” value is 33545 nmol·h/kg and the “AUC0-last (nmol · h/kg) tumor” value came out at 11368 nmol·h/kg. In series [2], the “T/C (%)” value came out at 43.4%, the “TGI (%)” value is 75.7% and the “tumor volumn (mm^3) 17th day after grouping” value is given as 290 ± 38 mm^3. In [3] (iv, 1 mg/kg, i.V. 1 mpk), the C0 was found to be 1640 nM, the clearance is 18.9 mL/min/kg, the half-life is 1.35 h and the AUC(0-t) is 1.99 µM·h. Moreover, the Vd in series [3] (iv, 1 mg/kg, i.V. 1 mpk) is 1.93 L/kg. For the same compound, in [3] (po, 2.5 mg/kg, P.O 2.5 mpk), the Cmax was found to be 924 nM, the Tmax worked out at 0.417 h, the bioavailability was determined as 66% and the half-life is 3.49 h. For the same compound, the AUC(0-t) in series [3] (po, 2.5 mg/kg, P.O 2.5 mpk) was 3.28 µM·h.

The compound `CC/C(=C(/c1ccc(/C=C/C(=O)O)cc1)c1cc2ccccc2[nH]1)c1ccc(F)cc1Cl` [Compound I-1] showed an IC50 on CYP 2D6 of 43.4 µM. On CYP 2C19, this compound came in with an IC50 of 40.4 µM. Also, the “distribution in brain tissue compared with ARN-810” value in series [1] (brain tissue) is on record as “much better”. In addition, in series [1], the “AUC0-last (nmol · h/kg) brain” value is 43167 nmol·h/kg, the “AUC0-last (nmol · h/kg) plasma” value was 118937 nmol·h/kg and the “AUC0-last (nmol · h/kg) tumor” value amounted to 55487 nmol·h/kg. The “distribution in tumor tissue compared with ARN-810” value in series [1] (tumor tissue) was “much better”. For the same compound, in series [4], the fraction unbound was 0.012. Also, the “antitumor activity compared with ARN-810” value in series [2] (oral I-1 30 mg/kg versus oral ARN-810 10/30 mg/kg) was “superior”. In series [2], the “T/C (%)” value was found to be 30.1%, the “TGI (%)” value came to 93.6% and the “tumor volumn (mm^3) 17th day after grouping” value is given as 201 ± 27 mm^3. Moreover, in series [5], the free fraction (fraction unbound) is 0.028. Further, the IC50 against CYP 3A4 worked out at 25.1 µM. The compound further registered an IC50 on CYP 2C9 of 10.1 µM. Besides, the IC50 in the series with MCF-7 cells is 0.0385 µM. Further, the IC50 on CYP 1A2 was 25.5 µM. Moreover, in series [3] (iv, 1 mg/kg, i.V. 1 mpk), the C0 came out at 3480 nM, the clearance was found to be 3.61 mL/min/kg, the half-life was 2.81 h and the AUC(0-t) was determined as 10.4 µM·h. Also, in series [3] (iv, 1 mg/kg, i.V. 1 mpk), the Vd stood at 0.992 L/kg. Moreover, in [3] (po, 2.5 mg/kg, P.O 2.5 mpk), the Cmax is 2150 nM, the Tmax is 3.33 h, the bioavailability came to 70.6% and the half-life is 3.18 h. In addition, the AUC(0-t) in [3] (po, 2.5 mg/kg, P.O 2.5 mpk) turned out to be 18.3 µM·h.

For `C[C@]12CC[C@@H]3c4ccc(O)cc4C[C@@H](CCCCCCCCC[S+]([O-])CCCC(F)(F)C(F)(F)F)[C@H]3[C@@H]1CC[C@@H]2O` (stereo partly drawn) [fulvestrant], the oral bioavailability result in [6] is listed as “zero”. Further, in the series with breast cancer, the “breast cancer patients showing clinical response” value was “about 50%”.
